What all share (assay): cAMP induction, firefly luciferase reporter assay in HEK293 cells co-transfected with receptor
What all share (assay type): cell-based

One assay concerns the target T1, GLP-1 receptor (Homo sapiens, UniProt P43220).
T1 construct: expressed in transfected cells; host or cells: HEK293
The protocol: (§1) The ability of glucagon analogs to induce cAMP was measured in a firefly luciferase-based reporter assay. […] At the end of the incubation 100 microliters of LucLite luminescence substrate reagent (Perkin-Elmer, Wellesley, Mass.) were added to each well. […] Effective 50% concentrations were calculated by using Origin software (OriginLab, Northampton, Mass.

The target of the next assay is T2, glucagon receptor (Homo sapiens, UniProt P47871).
T2 construct: expressed in transfected cells; host or cells: HEK293
T2 sequence (P47871 26-477): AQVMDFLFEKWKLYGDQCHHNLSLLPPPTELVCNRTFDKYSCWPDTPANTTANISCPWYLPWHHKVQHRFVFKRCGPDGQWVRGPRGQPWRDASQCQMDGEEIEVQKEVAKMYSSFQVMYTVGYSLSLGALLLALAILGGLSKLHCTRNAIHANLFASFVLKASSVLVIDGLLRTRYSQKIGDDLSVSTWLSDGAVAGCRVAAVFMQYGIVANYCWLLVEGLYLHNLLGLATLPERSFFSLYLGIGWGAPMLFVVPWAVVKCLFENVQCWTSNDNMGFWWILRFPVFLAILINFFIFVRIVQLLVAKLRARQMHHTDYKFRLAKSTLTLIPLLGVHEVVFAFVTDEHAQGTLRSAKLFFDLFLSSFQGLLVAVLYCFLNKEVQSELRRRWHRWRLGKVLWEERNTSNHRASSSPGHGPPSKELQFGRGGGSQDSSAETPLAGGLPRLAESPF
The protocol: as §1

A further assay deals with T3, GIP receptor (Homo sapiens, UniProt P48546).
T3 construct: expressed in transfected cells; host or cells: HEK293
T3 sequence (P48546 22-466): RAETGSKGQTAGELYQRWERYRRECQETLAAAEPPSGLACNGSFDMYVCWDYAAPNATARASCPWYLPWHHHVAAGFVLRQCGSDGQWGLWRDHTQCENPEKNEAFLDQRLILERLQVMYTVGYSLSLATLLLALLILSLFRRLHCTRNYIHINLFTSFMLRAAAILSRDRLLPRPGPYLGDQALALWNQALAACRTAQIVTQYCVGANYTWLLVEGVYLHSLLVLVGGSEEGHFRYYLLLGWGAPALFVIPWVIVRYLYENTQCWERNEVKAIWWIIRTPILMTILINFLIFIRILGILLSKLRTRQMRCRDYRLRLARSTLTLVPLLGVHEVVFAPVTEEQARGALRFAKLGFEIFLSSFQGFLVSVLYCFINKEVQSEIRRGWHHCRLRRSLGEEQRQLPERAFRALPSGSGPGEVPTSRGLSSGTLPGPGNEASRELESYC
The method, then: as §1

Where [1] appears, read: Table 2, analogs of SEQ ID NO: 10.
Setting [2] is: Table 3, analogs of SEQ ID NO: 12.

SMILES strings stand for the structures. Numbered stars: 1 amine (or outer) side, 2 acyl side, 3 side chain; on linkers, the order of the positions; unused ones are H or OH. Square brackets hold non-standard residues; d marks the D form. Side chains are listed from the residue outwards. Peptide text beside a SMILES is read from it. * marks the point of attachment. γGlu = O=C(O)[C@H](CCC(=O)[*:2])N[*:1]; Desaminotyrosyl = O=C(CCc1ccc(O)cc1)*; Palmitoyl = CCCCCCCCCCCCCCCC(=O)*

T1 sequence (P43220 24-463): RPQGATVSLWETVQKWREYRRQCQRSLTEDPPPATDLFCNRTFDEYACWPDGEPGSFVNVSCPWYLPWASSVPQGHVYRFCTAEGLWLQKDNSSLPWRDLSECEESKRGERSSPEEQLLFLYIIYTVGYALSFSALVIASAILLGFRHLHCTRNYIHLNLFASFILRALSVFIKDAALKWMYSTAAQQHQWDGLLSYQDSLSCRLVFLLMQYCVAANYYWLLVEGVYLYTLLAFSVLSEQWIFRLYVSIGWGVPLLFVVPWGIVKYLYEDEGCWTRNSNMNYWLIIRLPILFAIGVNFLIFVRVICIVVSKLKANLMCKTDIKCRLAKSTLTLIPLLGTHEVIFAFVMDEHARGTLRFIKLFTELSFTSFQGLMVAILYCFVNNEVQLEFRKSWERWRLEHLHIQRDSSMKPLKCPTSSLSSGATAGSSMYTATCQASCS

Take `CCCCCCCCCCCCCCCC(=O)N[C@@H](CCC(=O)NCCCC[C@H](NC(=O)[C@H](CC(=O)O)NC(=O)[C@H](CO)NC(=O)[C@@H](NC(=O)[C@H](Cc1ccccc1)NC(=O)[C@@H](NC(=O)CNC(=O)[C@H](CCC(N)=O)NC(=O)[C@H](C)NC(=O)[C@@H](Cc1ccccc1)NC(C)=O)[C@@H](C)O)[C@@H](C)O)C(=O)N[C@@H](CO)C(=O)N[C@@H](CCCCN)C(=O)N[C@@H](Cc1ccc(O)cc1)C(=O)N[C@@H](CC(C)C)C(=O)N[C@@H](CC(=O)O)C(=O)N[C@@H](CCC(=O)O)C(=O)N[C@@H](CCCNC(=N)N)C(=O)N[C@@H](C)C(=O)N[C@@H](C)C(=O)N[C@@H](CCC(N)=O)C(=O)N[C@@H](CC(=O)O)C(=O)N[C@@H](Cc1ccccc1)C(=O)N[C@H](C(=O)N[C@@H](CCC(N)=O)C(=O)N[C@@H](Cc1c[nH]c2ccccc12)C(=O)N[C@@H](CC(C)C)C(=O)N[C@@H](CC(C)C)C(=O)N[C@@H](CCC(=O)O)C(=O)NCC(=O)NCC(=O)N1CCC[C@H]1C(=O)N[C@@H](CO)C(=O)N[C@@H](CO)C(=O)NCC(=O)N[C@@H](C)C(=O)N1CCC[C@H]1C(=O)N1CCC[C@H]1C(=O)N1CCC[C@H]1C(=O)N[C@@H](CO)C(N)=O)C(C)C)C(=O)O` [compound 150]: the EC50 is 2 pM at GLP-1 receptor (setting [1]), 0.014 nM on glucagon receptor (setting [1]) and 0.011 nM at GIP receptor (setting [1]).

Consider `CCCCCCCCCCCCCCCC(=O)N[C@@H](CCC(=O)NCCCC[C@H](NC(=O)[C@H](CC(=O)O)NC(=O)[C@H](CO)NC(=O)[C@@H](NC(=O)[C@H](Cc1ccccc1)NC(=O)[C@@H](NC(=O)CNC(=O)[C@H](CCC(N)=O)NC(=O)[C@H](C)NC(=O)[C@@H](Cc1c[nH]cn1)NC(C)=O)[C@@H](C)O)[C@@H](C)O)C(=O)N[C@@H](CO)C(=O)N[C@@H](CCCCN)C(=O)N[C@@H](Cc1ccc(O)cc1)C(=O)N[C@@H](CC(C)C)C(=O)N[C@@H](CC(=O)O)C(=O)N[C@@H](CCC(=O)O)C(=O)N[C@@H](CCCNC(=N)N)C(=O)N[C@@H](C)C(=O)N[C@@H](C)C(=O)N[C@@H](CCC(N)=O)C(=O)N[C@@H](CC(=O)O)C(=O)N[C@@H](Cc1ccccc1)C(=O)N[C@H](C(=O)N[C@@H](CCC(N)=O)C(=O)N[C@@H](Cc1c[nH]c2ccccc12)C(=O)N[C@@H](CC(C)C)C(=O)N[C@@H](CC(C)C)C(=O)N[C@@H](CCC(=O)O)C(=O)N[C@@H](C)C(=O)NCC(=O)N1CCC[C@H]1C(=O)N[C@@H](CO)C(=O)N[C@@H](CO)C(=O)NCC(=O)N[C@@H](C)C(=O)N1CCC[C@H]1C(=O)N1CCC[C@H]1C(=O)N1CCC[C@H]1C(=O)N[C@@H](CO)C(N)=O)C(C)C)C(=O)O` [compound 151] (Ac-[dH]AQGTFTSDK([γGlu-Palmitoyl])SKYLDERAAQDFVQWLLEAGPSSGAPPPS-NH2), for which the EC50 came out at 2 pM at GLP-1 receptor (setting [1]), 0.003 nM on glucagon receptor (setting [1]) and 0.014 nM at GIP receptor (setting [1]).

`CCCCCCCCCCCCCCCC(=O)N[C@@H](CCC(=O)NCCCC[C@H](NC(=O)[C@H](CC(=O)O)NC(=O)[C@H](CO)NC(=O)[C@@H](NC(=O)[C@H](Cc1ccccc1)NC(=O)[C@@H](NC(=O)CNC(=O)[C@H](CCC(N)=O)NC(=O)[C@H](C)NC(=O)[C@@H](Cc1ccc(O)cc1)NC(C)=O)[C@@H](C)O)[C@@H](C)O)C(=O)N[C@@H](CO)C(=O)N[C@@H](CCCCN)C(=O)N[C@@H](Cc1ccc(O)cc1)C(=O)N[C@@H](CC(C)C)C(=O)N[C@@H](CC(=O)O)C(=O)N[C@@H](CCC(=O)O)C(=O)N[C@@H](CCCNC(=N)N)C(=O)N[C@@H](C)C(=O)N[C@@H](C)C(=O)N[C@@H](CCC(N)=O)C(=O)N[C@@H](CC(=O)O)C(=O)N[C@@H](Cc1ccccc1)C(=O)N[C@H](C(=O)N[C@@H](CCC(N)=O)C(=O)N[C@@H](Cc1c[nH]c2ccccc12)C(=O)N[C@@H](CC(C)C)C(=O)N[C@@H](CC(C)C)C(=O)N[C@@H](CC(=O)O)C(=O)N[C@@H](CC(C)C)C(=O)NCC(=O)N1CCC[C@H]1C(=O)N[C@@H](CO)C(=O)N[C@@H](CO)C(=O)NCC(=O)N[C@@H](C)C(=O)N1CCC[C@H]1C(=O)N1CCC[C@H]1C(=O)N1CCC[C@H]1C(=O)N[C@@H](CO)C(N)=O)C(C)C)C(=O)O` [compound 153] (Ac-[dY]AQGTFTSDK([γGlu-Palmitoyl])SKYLDERAAQDFVQWLLDLGPSSGAPPPS-NH2): the results for the EC50 at GLP-1 receptor (setting [2]), on glucagon receptor (setting [2]) and on GIP receptor (setting [2]) were 17 pM, 0.021 nM and 0.018 nM, respectively.

Regarding `CCCCCCCCCCCCCCCC(=O)N[C@@H](CCC(=O)NCCCC[C@H](NC(=O)[C@H](CC(=O)O)NC(=O)[C@H](CO)NC(=O)[C@@H](NC(=O)[C@H](Cc1ccccc1)NC(=O)[C@@H](NC(=O)CNC(=O)[C@H](CCC(=O)O)NC(=O)[C@H](C)NC(=O)[C@@H](Cc1c[nH]cn1)NC(C)=O)[C@@H](C)O)[C@@H](C)O)C(=O)N[C@@H](CO)C(=O)N[C@@H](CCCCN)C(=O)N[C@@H](Cc1ccc(O)cc1)C(=O)N[C@@H](CC(C)C)C(=O)N[C@@H](CC(=O)O)C(=O)N[C@@H](CCC(=O)O)C(=O)N[C@@H](CCCNC(=N)N)C(=O)N[C@@H](C)C(=O)N[C@@H](C)C(=O)N[C@@H](CCC(N)=O)C(=O)N[C@@H](CC(=O)O)C(=O)N[C@@H](Cc1ccccc1)C(=O)N[C@H](C(=O)N[C@@H](CCC(N)=O)C(=O)N[C@@H](Cc1c[nH]c2ccccc12)C(=O)N[C@@H](CC(C)C)C(=O)N[C@@H](CC(C)C)C(=O)N[C@@H](CCC(=O)O)C(=O)N[C@@H](C)C(=O)NCC(=O)N1CCC[C@H]1C(=O)N[C@@H](CO)C(=O)N[C@@H](CO)C(=O)NCC(=O)N[C@@H](C)C(=O)N1CCC[C@H]1C(=O)N1CCC[C@H]1C(=O)N1CCC[C@H]1C(=O)N[C@@H](CO)C(N)=O)C(C)C)C(=O)O` [compound 154] (Ac-[dH]AEGTFTSDK([γGlu-Palmitoyl])SKYLDERAAQDFVQWLLEAGPSSGAPPPS-NH2), the EC50 was 4 pM at GLP-1 receptor (setting [1]), 0.847 nM on glucagon receptor (setting [1]) and 0.024 nM at GIP receptor (setting [1]).

Regarding `CCCCCCCCCCCCCCCC(=O)N[C@@H](CCC(=O)NCCCC[C@H](NC(=O)[C@H](CC(=O)O)NC(=O)[C@H](CO)NC(=O)[C@@H](NC(=O)[C@H](Cc1ccccc1)NC(=O)[C@@H](NC(=O)CNC(=O)[C@H](CCC(N)=O)NC(=O)[C@H](C)NC(=O)[C@H](Cc1ccc(O)cc1)NC(C)=O)[C@@H](C)O)[C@@H](C)O)C(=O)N[C@@H](CO)C(=O)N[C@@H](CCCCN)C(=O)N[C@@H](Cc1ccc(O)cc1)C(=O)N[C@@H](CC(C)C)C(=O)N[C@@H](CC(=O)O)C(=O)N[C@@H](CCC(=O)O)C(=O)N[C@@H](CCCNC(=N)N)C(=O)N[C@@H](C)C(=O)N[C@@H](C)C(=O)N[C@@H](CCC(N)=O)C(=O)N[C@@H](CC(=O)O)C(=O)N[C@@H](Cc1ccccc1)C(=O)N[C@H](C(=O)N[C@@H](CCC(N)=O)C(=O)N[C@@H](Cc1c[nH]c2ccccc12)C(=O)N[C@@H](CC(C)C)C(=O)N[C@@H](CC(C)C)C(=O)N[C@@H](CCC(=O)O)C(=O)NCC(=O)NCC(=O)N1CCC[C@H]1C(=O)N[C@@H](CO)C(=O)N[C@@H](CO)C(=O)NCC(=O)N[C@@H](C)C(=O)N1CCC[C@H]1C(=O)N1CCC[C@H]1C(=O)N1CCC[C@H]1C(=O)N[C@@H](CO)C(N)=O)C(C)C)C(=O)O` [compound 155] (Ac-YAQGTFTSDK([γGlu-Palmitoyl])SKYLDERAAQDFVQWLLEGGPSSGAPPPS-NH2), the EC50 at GLP-1 receptor (setting [1]) was found to be 60 pM; at glucagon receptor (setting [1]), 0.007 nM; at GIP receptor (setting [1]), 0.037 nM.

`CCCCCCCCCCCCCCCC(=O)NCCCC[C@H](NC(=O)[C@H](CO)NC(=O)[C@@H]1CCCN1C(=O)[C@@H]1CCCN1C(=O)[C@@H]1CCCN1C(=O)[C@H](C)NC(=O)CNC(=O)[C@H](CO)NC(=O)[C@H](CO)NC(=O)[C@@H]1CCCN1C(=O)CNC(=O)CNC(=O)[C@H](CCC(=O)O)NC(=O)[C@H](CC(C)C)NC(=O)[C@H](CC(C)C)NC(=O)[C@H](Cc1c[nH]c2ccccc12)NC(=O)[C@H](CCC(N)=O)NC(=O)[C@@H](NC(=O)[C@H](Cc1ccccc1)NC(=O)[C@H](CC(=O)O)NC(=O)[C@H](CCC(N)=O)NC(=O)[C@H](C)NC(=O)[C@H](C)NC(=O)[C@H](CCCNC(=N)N)NC(=O)[C@H](CCC(=O)O)NC(=O)[C@H](CC(=O)O)NC(=O)[C@H](CC(C)C)NC(=O)[C@H](Cc1ccc(O)cc1)NC(=O)[C@H](CCCCN)NC(=O)[C@H](CO)NC(=O)[C@H](Cc1ccc(O)cc1)NC(=O)[C@H](CC(=O)O)NC(=O)[C@H](CO)NC(=O)[C@@H](NC(=O)[C@H](Cc1ccccc1)NC(=O)[C@@H](NC(=O)CNC(=O)[C@H](CCC(N)=O)NC(=O)[C@H](C)NC(=O)CCc1ccc(O)cc1)[C@@H](C)O)[C@@H](C)O)C(C)C)C(=O)NCC(N)=O` [compound 157] (Desaminotyrosyl-AQGTFTSDYSKYLDERAAQDFVQWLLEGGPSSGAPPPSK(Palmitoyl)G-NH2): the EC50 on GLP-1 receptor (setting [1]) came out at 13 pM; on glucagon receptor (setting [1]), 0.047 nM; on GIP receptor (setting [1]), 0.059 nM.

Values taken from patent publication US9868772B2 (INDIANA UNIVERSITY RESEARCH AND TECHNOLOGY CORPORATION, priority 2012, dated 2018).
